Series [1] has as its target T1, F508del CFTR (Homo sapiens, UniProt P13569, DEL508-508).
T1 construct: expressed in transfected cells; host or cells: CFBE41o- cells overexpressing F508del CFTR and HS-YFP (YFP-H148Q/I152L), a gift from N. Pedemonte, Gaslini Institute
Nature of the series: F508del CFTR functional rescue (corrector) HS-YFP single-cell assay. Format: cell-based. Particulars: CFBE41o- YFP-F508del cells; for F508del CFTR rescue (corrector) activity: 48 h incubation, 200 nM. The method, then:
To verify the possibility that the title compounds may act as correctors in CFBE41o-, overexpressing F508del and the high sensitivity halide-sensing yellow fluorescent protein (HS-YFP) YFP-H148Q/I152L, we examined the effect of 48 h preincubation with vehicle or the TMA analogs or TMA or VX809 (Lumacaftor), as a positive control.
At the time of the assay, the correction of the F508del-CFTR function was evaluated in single-cell analysis by measuring the decrease in YFP fluorescence after the concomitant addition of extracellular iodide and the activating cocktail (20 μM forskolin and 5 μM VX770), in the presence or absence of the 10 μM CFTR inhibitor, CFTRinh-172. […] At least two derivatives show CFTR activity similar to that of the parent TMA.
The effect of TMA analogs on CFTR function was tested in CFBE41o- overexpressing F508del and the high sensitivity halide-sensing yellow fluorescent protein (HS-YFP) YFP-H148Q/I152L (a generous gift from N. Pedemonte, Gaslini Institute, Genova, Italy). YFP CF cells were seeded on round glass coverslips and preincubated for 48 h with vehicle or test compounds or VX809 or TMA. At the time of the assay, cells were washed in Dulbecco’s PBS (in mM: 137 NaCl, 2.7 KCl, 8.1 Na2HPO4, 1.5 KH2PO4, 1 CaCl2, and 0.5 MgCl2, pH 7.4) and subsequently incubated with a stimulation cocktail (20 μM forskolin and 5 μM VX770) in the presence and absence of 10 μM CFTR inhibitor, CFTRInh-172 (Sigma), for 30 min. The coverslips were then transferred on a Nikon TMD inverted microscope through a Nikon Fluor 40 objective. The signal was acquired with a Hamamatsu C2400–97 charge-coupled intensified video camera at a rate of 1 frame/3 s. The fluorescence coming from every single cell was analyzed by custom software (Spin, Vicenza, Italy). The results are presented as transformed data to obtain the percentage signal variation (Fx) relative to the time of addition of the stimulus, according to the equation: Fx = ([Ft − Fo]/Fo) × 100, where Ft and Fo are the fluorescence values at time t and at the time of stimulus addition, respectively. The assay of each sample consists of a continuous 99-s fluorescence reading with 30 s before and 69 s after injection of the iodide-rich Dulbecco’s PBS (in mM: 137 NaI, 2.7 KCl, 8.1 Na2HPO4, 1.5 KH2PO4, 1 CaCl2, and 0.5 MgCl2, pH 7.4) to reach a final iodide concentration of 50 mM [20]. The different sensitivity of HS-YFP toward iodide and chloride allows assays to be performed by measuring the transport of anions through the plasma membrane as changes in cell fluorescence. For this assay, cells expressing HS-YFP are equilibrated in a physiological chloride-rich saline solution (e.g., Dulbecco’s PBS). During fluorescence reading, cells are exposed to a high concentration of iodide. Iodide influx quenches the cell fluorescence with a rate that depends on the permeability of the cell membrane to halides, and therefore, on the activity of the anion channels or transporters.
Figure 4 Evaluation of different TMA analogs as F508del CFTR correctors in CFBE41o- YFP-F508del cells. Correction of F508del-CFTR function was assessed, in a single cell, by measuring the decrease in YFP fluorescence upon addition of extracellular iodide and with the activating cocktail, in the presence or absence of CFTR inhibitor, CFTRInh-172. Iodide influx was tested under control condition (vehicle) or after 48 h incubation with the correctors 200 nM or 1 μM VX809. The YFP fluorescence decay rate was calculated by fitting the fluorescence data with an exponential function of time courses. CFTR activity was obtained by the difference between the fluorescence decay rate of YFP in the presence and absence of CFTRInh-172. Fluorescence coming from every single cell of at least five cells per field was recorded. Each bar corresponds to the mean ± SEM of data points coming from at least three different experiments (5–10 different cells/each experiment). […]

On the set-up of series [2]: method as in PMID 29627723. Particulars: cited from earlier work.
Series [3] has as its system CFTR in FRT-YFP-G551D cells. Details: method as in PMID 30022950. The settings on record: cited from earlier work.
Series [4] is described as follows: In vivo oral pharmacokinetics in mice. Particulars: c57BL/6 male mice. The method, then:
The main pharmacokinetic parameters of 4-PhDMA, pANDMA, and pANDMA mesylate were evaluated in c57BL/6 male mice, using water as dispersing vehicle.
All experimental procedures involving animals were conducted in accordance with the 3R principle to minimize their pain and discomfort. […] For the PK analysis, C57Bl6 male mice (n = 3 per time point) were gavaged with selected compounds (20 mg/kg), suspended in water, or dissolved in SEDDS formulations, after an overnight fast. […] 8.0 software (GraphPad Software Inc., San Diego, CA, USA), when appropriate. If not otherwise stated, the PK data are expressed as mean ± SD. p < 0.05 was considered statistically significant.
The TMA analogs were extracted and analyzed from mouse plasma as already reported. Briefly, 100 µL of plasma were treated with 300 µL of cold acetonitrile spiked with 80 nM of internal standard (IS, 6,4′-dimethylangelicin), and then the samples were centrifuged for 10 min at 12,000× g (Hettich Mikro 120 Benchtop Centrifuge) and 25 °C. Ten microliters of the supernatant were injected into the UHPLC system.
The analytical column was a Kinetex 2.6 μm C18 Polar, 100 A, 100 × 2.1 mm (Phenomenex, Bologna, Italy), thermostated at 30 °C. The mobile phase components A and B were water and methanol, respectively, both containing 10 mM ammonium formate. The eluent flow rate was 0.25 mL/min. […] MS data were analyzed using the Mass Hunter Qualitative Analysis software (Agilent Technologies, Palo Alto, CA, USA).
Chromatographic peaks of the TMA analog were identified and integrated by considering the Extracted Ion Chromatogram (EIC) of the [M+H]^+ species selected with a window of 5 ppm and normalized by the IS. Quantification of TMA analogs was carried out by external calibration of normalized signals using a seven-point calibration curve obtained by spiking blank plasma with each TMA analog in the range of 20–3000 nM.

The next series deals with NF-kB/DNA interactions. Details: method as in PMID 29627723. The settings on record: cited from earlier work.
Series [5] concerns the target T1, F508del CFTR. Details: method as in PMID 30022950. The settings on record: nanomolar concentrations; cited from earlier work.
For a further series, the system named is salmon testes DNA. Nature of the series: Photoadduct formation with DNA under UVA irradiation (TLC analysis). The settings on record: 15 J/cm2 UVA. The protocol: The total energy that struck the sample was monitored by means of a radiometer (Variocontrol, Waldmann, Villingen-Schwenningen, Germany), equipped with a Variocontrol UV Sensor (Waldmann). The radiant power emitted by the UVA lamp was about […]. The samples were maintained at room temperature during irradiation.
The test compounds were dissolved in ethanol (2 mg/mL) and salmon testes DNA (Sigma-Aldrich) was dissolved in 10 mM NaCl and 1 mM EDTA solution (1.5 × 10^−3 M). Each test solution (250 μL) was added dropwise to the DNA solution (5 mL). The mixture was irradiated with 15 J/cm2 UVA light in a glass dish for 1 h. After irradiation, the DNA was precipitated with 1 M NaCl and two volumes of cold ethanol; the precipitated DNA was collected, washed with 80% ethanol, dried, and then dissolved in water. To obtain hydrolysis, the final solution was acidified with 1 M HCl, heated at 100 °C for 1 h, neutralized with NaOH and extracted three times with chloroform. Then, all of the organic layers were collected, dried under a high vacuum, and dissolved in ethanol. The hydrolyzed mixtures were separated by thin layer chromatography (TLC; F254 plates, 0.25 mm, Merck, Darmstadt, Germany) eluting with EtOAc/EtOH (9:1). The plates were analyzed with a Mineral Light Lamp VL-4LC VILBERT-LOURMAT (Vilber, Marne-la-Vallée, France).

For another series, the system named is HepG2 cells. Nature of the series: Cytotoxicity MTT assay on HepG2 cells. Particulars: HepG2, 24 h, highest concentration tested (50 μM).
[6] abbreviates: mouse, plasma, po, 20 mg/kg gavage, in water.

Like-named read-outs stand apart in the source and are kept apart here.

T1 sequence (P13569 with tags, fused parts or gaps DEL508-508): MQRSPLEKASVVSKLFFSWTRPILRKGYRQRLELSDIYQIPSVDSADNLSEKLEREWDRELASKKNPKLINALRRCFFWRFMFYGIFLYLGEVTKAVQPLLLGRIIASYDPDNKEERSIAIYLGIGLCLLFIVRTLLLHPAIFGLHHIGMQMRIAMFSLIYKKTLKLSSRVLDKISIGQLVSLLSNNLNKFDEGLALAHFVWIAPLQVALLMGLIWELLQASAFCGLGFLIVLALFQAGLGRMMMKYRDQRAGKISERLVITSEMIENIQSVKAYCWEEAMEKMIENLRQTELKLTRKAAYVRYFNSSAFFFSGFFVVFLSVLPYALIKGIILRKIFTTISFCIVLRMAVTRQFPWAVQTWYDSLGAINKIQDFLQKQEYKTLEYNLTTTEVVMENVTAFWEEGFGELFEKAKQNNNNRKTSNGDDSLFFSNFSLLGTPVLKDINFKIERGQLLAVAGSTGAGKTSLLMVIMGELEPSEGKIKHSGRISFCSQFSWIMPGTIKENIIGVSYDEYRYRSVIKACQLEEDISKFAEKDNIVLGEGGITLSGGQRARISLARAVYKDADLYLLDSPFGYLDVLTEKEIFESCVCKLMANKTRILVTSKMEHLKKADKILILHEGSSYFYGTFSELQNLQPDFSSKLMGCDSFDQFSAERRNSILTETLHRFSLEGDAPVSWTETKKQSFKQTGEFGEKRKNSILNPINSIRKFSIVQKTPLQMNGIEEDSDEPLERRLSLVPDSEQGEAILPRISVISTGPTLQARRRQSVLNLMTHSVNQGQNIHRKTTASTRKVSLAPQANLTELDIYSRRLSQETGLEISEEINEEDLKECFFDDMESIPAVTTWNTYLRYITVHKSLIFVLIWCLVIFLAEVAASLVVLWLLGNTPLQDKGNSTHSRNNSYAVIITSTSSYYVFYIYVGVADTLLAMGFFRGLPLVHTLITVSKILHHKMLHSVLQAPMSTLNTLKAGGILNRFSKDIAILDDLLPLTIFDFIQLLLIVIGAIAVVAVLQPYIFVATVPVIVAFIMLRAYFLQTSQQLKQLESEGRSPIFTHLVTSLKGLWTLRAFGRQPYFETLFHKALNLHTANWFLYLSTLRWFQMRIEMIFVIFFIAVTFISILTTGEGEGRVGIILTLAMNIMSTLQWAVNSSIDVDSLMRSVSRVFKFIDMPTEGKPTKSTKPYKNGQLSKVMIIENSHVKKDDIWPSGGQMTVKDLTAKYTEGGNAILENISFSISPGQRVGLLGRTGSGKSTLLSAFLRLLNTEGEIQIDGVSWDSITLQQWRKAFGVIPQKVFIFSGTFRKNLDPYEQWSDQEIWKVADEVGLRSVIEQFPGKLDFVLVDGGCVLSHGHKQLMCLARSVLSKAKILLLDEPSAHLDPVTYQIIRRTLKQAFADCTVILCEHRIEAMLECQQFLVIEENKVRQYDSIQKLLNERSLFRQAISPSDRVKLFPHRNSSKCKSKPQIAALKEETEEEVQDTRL
Description for HepG2 cells: The potential toxicity of TMA analogs on hepatic tissue was assessed by evaluating the viability of HepG2 cells (ATCC, HB-8065) using the MTT assay, as previously reported [22]. Cells were maintained in DMEM complete medium (10% FBS, 1% l-glutamine and 1% PEN-STREP) and seeded in a 96-well plate (5 × 10^4 cells/mL). They were treated for 24 h with TMA analogs (concentration range from 3.125 μM to 50 μM). At the end of the treatment, cells were washed and an MTT solution (0.5 mg/mL in complete medium) was added to each well and incubated for 4 h at 37 °C. The solution was discarded, and the produced blue formazan crystals were dissolved with acidified isopropanol (2% HCl). Absorbance was measured at 570 nm using a multiplate reader (Victor Nivo, Perkin Elmer). The percentage of viable cells was calculated considering untreated cells as control.
The data shown in this figure are the results of three independent experiments, each
performed in quadruplicate.

As for `CCc1cc2c(-c3ccccc3)cc(=O)oc2c2c(C)coc12` [4-PhEMA], the “F508del CFTR rescue (corrector) activity” value on F508del CFTR [1] was “inactive”.
As for `Cc1coc2c(-c3ccccc3)cc3c(C4CC4)cc(=O)oc3c12` [CPPhMA], the “F508del CFTR rescue (corrector) activity” value on F508del CFTR [1] was “inactive”.
A word on the Cmax: it is the peak of the concentration-time curve. Broadly, the half-life is the time in which the quantity being followed falls by half. One may read the Tmax as the time at which the peak concentration occurs. With `CCc1cc2c(C(C)C)cc(=O)oc2c2c(C)coc12` [IPEMA, 4-isopropyl-6-ethyl-4′-methylangelicin], in series [2], the “mutagenicity and DNA damaging properties” value was “lacking mutagenicity and DNA damaging properties”. The “potentiation activity of CFTR” value in series [3] was “maintained the potentiation activity”. The same molecule returned a CL/F in series [4] (20 mg/kg gavage, in water) of 0.0633 ± 0.005 mL/h/g. The oral bioavailability entry in series [4] (water as vehicle) is reported as “very low”. In series [4] (setting [6]), the concentration peaked (Cmax) at 120 ± 55.3 nM and the half-life is 9.01 ± 1.34 h. Moreover, the AUC 0-inf in series [4] (mouse, plasma, po, 20 mg/kg gavage, in water, read-out: AUC 0-inf) was 0.395 ± 0.0987 µM·h. The time of peak concentration (Tmax) in series [4] (mouse, plasma, po, 20 mg/kg gavage, in water, read-out: Tmax) is 1 h. Further, the “inhibitory activity on NF-kB/DNA interactions” value in the series on NF-kB/DNA interactions is “TMA-like inhibitory activity”. The “rescue of F508del CFTR-dependent chloride efflux” value at F508del CFTR [5] is recorded as “significantly rescued”.
As for `Cc1coc2c(-c3ccccc3)cc3c(C(C)C)cc(=O)oc3c12` [IPPhMA], the “F508del CFTR rescue (corrector) activity” value on F508del CFTR [1] is “inactive”.
Same read-out and setting: the same measure for `Cc1cc(=O)oc2c1cc(-c1ccncc1)c1occ(C)c12` [PyDMA]: “inactive”.
For `Cc1cc(=O)oc2c1cc(C)c1occ(C)c12` [TMA, 4,6,4′-trimethylangelicin, reference compound], the “photoadduct formation with DNA upon UVA irradiation” value in the series with salmon testes DNA is given as “showed photoadducts”.
In the case of `Cc1cc(=O)oc2c1cc(-c1cccs1)c1occ(C)c12` [ThiDMA], the “F508del CFTR rescue (corrector) activity” value on F508del CFTR [1] was “inactive”.
On the same count and under the same terms, as for `Cc1cc(=O)oc2c1cc(-c1cccc(N)c1)c1occ(C)c12` [mANDMA], the entry is “inactive”.
As for `CS(=O)(=O)O.Cc1cc(=O)oc2c1cc(-c1ccc(N)cc1)c1occ(C)c12` [pANDMA mesylate], the cell viability entry with HepG2 cells is “greater than 75%”. In series [4] (20 mg/kg gavage, in water), the “AUC 0-inf” value amounted to 9.4026 ± 0.7422 µM·h, the CL/F is reported as 0.0091 ± 0.0002 mL/h/g, the peak concentration (Cmax) stood at 3870 ± 1070 nM and the Tmax came out at 0.375 ± 0.177 h. In addition, the t1/2 in series [4] (20 mg/kg gavage, in water) is recorded as 1.87 ± 0.43 h. The “bioavailability relative to pANDMA” value in series [4] (water as vehicle) is reported as “nearly four-times more bioavailable”. For the same molecule, the “reduction in YFP fluorescence induced by iodide influx compared to vehicle” value at F508del CFTR [1] (48 h treatment, representative time courses) is “greater reduction in YFP fluorescence”.

Values taken from article PMC9570109, “Improved Trimethylangelicin Analogs for Cystic Fibrosis: Design, Synthesis and Preliminary Screening” (International Journal of Molecular Sciences, 2022).
